Laboratory results from patent publication US20200231614A1, “PSMA TARGETED RADIOHALOGENATED UREAS FOR CANCER RADIOTHERAPY” (THE JOHNS HOPKINS UNIVERSITY, priority 2015, published 2020).
Where two headings read alike, the source gives them in different places.

Test system: PSMA + PC-3 PiP and PSMA − PC-3 flu tumor xenografts
Details: for Biodistribution: PC-3 PiP: PSMA+ tumor xenograft; for Biodistribution: PC-3 flu: PSMA− tumor xenograft
[1] = 21 H post-injection, comparative Table 13

N=C(N)NCc1ccc(C(=O)NCCCCC(NC(=O)CCCCCCC(=O)NCCCC[C@H](NC(=O)N[C@@H](CCC(=O)O)C(=O)O)C(=O)O)C(=O)O)cc1[131I] (stereo partly shown) [[^131I] labeled PSMA-904]
Biodistribution: Lrg Int. (1 H post-injection): 0.50 ± 0.65 % ID/g
Biodistribution: Sm int. (1 H post-injection): 33.81 ± 6.36 % ID/g
Biodistribution: bladder (1 H post-injection): 0.71 ± 0.23 % ID/g
Biodistribution: blood (1 H post-injection): 0.46 ± 0.17 % ID/g
Biodistribution: heart (1 H post-injection): 0.46 ± 0.18 % ID/g
Biodistribution: kidney (1 H post-injection): 121 ± 23.8 % ID/g
Biodistribution: liver (1 H post-injection): 5.16 ± 3.81 % ID/g
Biodistribution: lung (1 H post-injection): 1.39 ± 0.36 % ID/g
Biodistribution: muscle (1 H post-injection): 0.31 ± 0.14 % ID/g
Biodistribution: spleen (1 H post-injection): 9.83 ± 3.28 % ID/g
Biodistribution: stomach (1 H post-injection): 0.73 ± 0.26 % ID/g
Biodistribution: thyroid (1 H post-injection): 0.11 ± 0.13 % ID/g
Biodistribution: Lrg Int. (2 H post-injection): 21.3 ± 15.9 % ID/g
Biodistribution: Sm int. (2 H post-injection): 14.2 ± 12.0 % ID/g
Biodistribution: bladder (2 H post-injection): 0.64 ± 0.25 % ID/g
Biodistribution: blood (2 H post-injection): 0.18 ± 0.07 % ID/g
Biodistribution: heart (2 H post-injection): 0.27 ± 0.14 % ID/g
Biodistribution: kidney (2 H post-injection): 110 ± 37.2 % ID/g
Biodistribution: liver (2 H post-injection): 3.48 ± 2.35 % ID/g
Biodistribution: lung (2 H post-injection): 0.81 ± 0.37 % ID/g
Biodistribution: muscle (2 H post-injection): 0.13 ± 0.03 % ID/g
Biodistribution: spleen (2 H post-injection): 3.41 ± 2.01 % ID/g
Biodistribution: stomach (2 H post-injection): 1.03 ± 0.62 % ID/g
Biodistribution: thyroid (2 H post-injection): 0.31 ± 0.23 % ID/g
Biodistribution: Lrg Int. (21 H post-injection): 14.5 ± 8.08 % ID/g
Biodistribution: Sm int. (21 H post-injection): 0.87 ± 0.92 % ID/g
Biodistribution: bladder (21 H post-injection): 0.07 ± 0.09 % ID/g
Biodistribution: blood (21 H post-injection): 0.02 ± 0.01 % ID/g
Biodistribution: heart (21 H post-injection): 0.02 ± 0.01 % ID/g
Biodistribution: kidney (21 H post-injection): 3.03 ± 2.96 % ID/g
Biodistribution: liver (21 H post-injection): 0.24 ± 0.39 % ID/g
Biodistribution: lung (21 H post-injection): 0.03 ± 0.01 % ID/g
Biodistribution: muscle (21 H post-injection): 0.03 ± 0.02 % ID/g
Biodistribution: spleen (21 H post-injection): 0.16 ± 0.07 % ID/g
Biodistribution: stomach (21 H post-injection): 1.98 ± 3.10 % ID/g
Biodistribution: thyroid (21 H post-injection): 0.42 ± 0.35 % ID/g
Biodistribution: PC-3 PiP (1 H post-injection): 27.6 ± 7.59 % ID/g
Biodistribution: PC-3 PiP (2 H post-injection): 24.7 ± 9.77 % ID/g
Biodistribution: PC-3 PiP (21 H post-injection): 19.2 ± 7.28 % ID/g
Biodistribution: PC-3 flu (1 H post-injection): 0.49 ± 0.23 % ID/g
Biodistribution: PC-3 flu (2 H post-injection): 0.22 ± 0.06 % ID/g
Biodistribution: PC-3 flu (21 H post-injection): 0.02 ± 0.01 % ID/g

O=C(O)CC[C@H](NC(=O)N[C@@H](CCC(=O)NCCc1ccc([131I])cc1)C(=O)O)C(=O)O [[^131I]HS-549]
Biodistribution: Lrg Int. (1 H post-injection): 0.52 ± 0.12 % ID/g
Biodistribution: Sm int. (1 H post-injection): 1.98 ± 0.30 % ID/g
Biodistribution: bladder (1 H post-injection): 4.34 ± 2.16 % ID/g
Biodistribution: blood (1 H post-injection): 5.90 ± 1.05 % ID/g
Biodistribution: heart (1 H post-injection): 2.30 ± 0.63 % ID/g
Biodistribution: kidney (1 H post-injection): 106 ± 18.9 % ID/g
Biodistribution: liver (1 H post-injection): 21.2 ± 4.14 % ID/g
Biodistribution: lung (1 H post-injection): 4.60 ± 1.09 % ID/g
Biodistribution: muscle (1 H post-injection): 0.86 ± 0.26 % ID/g
Biodistribution: spleen (1 H post-injection): 6.76 ± 3.42 % ID/g
Biodistribution: stomach (1 H post-injection): 0.92 ± 0.20 % ID/g
Biodistribution: thyroid (1 H post-injection): 1.17 ± 0.43 % ID/g
Biodistribution: Lrg Int. (2 H post-injection): 1.32 ± 0.25 % ID/g
Biodistribution: Sm int. (2 H post-injection): 2.42 ± 0.40 % ID/g
Biodistribution: bladder (2 H post-injection): 2.34 ± 1.04 % ID/g
Biodistribution: blood (2 H post-injection): 2.92 ± 0.32 % ID/g
Biodistribution: heart (2 H post-injection): 1.14 ± 0.18 % ID/g
Biodistribution: kidney (2 H post-injection): 96.6 ± 39.1 % ID/g
Biodistribution: liver (2 H post-injection): 26.0 ± 3.09 % ID/g
Biodistribution: lung (2 H post-injection): 2.73 ± 0.66 % ID/g
Biodistribution: muscle (2 H post-injection): 0.46 ± 0.12 % ID/g
Biodistribution: spleen (2 H post-injection): 2.71 ± 0.85 % ID/g
Biodistribution: stomach (2 H post-injection): 0.47 ± 0.17 % ID/g
Biodistribution: thyroid (2 H post-injection): 0.69 ± 0.29 % ID/g
tumor/kidney ratio (2 H post-injection): 0.8
Biodistribution: Lrg Int. (21 H post-injection): 0.63 ± 0.39 % ID/g
Biodistribution: Sm int. (21 H post-injection): 0.37 ± 0.06 % ID/g
Biodistribution: bladder (21 H post-injection): 0.65 ± 0.20 % ID/g
Biodistribution: blood (21 H post-injection): 1.39 ± 0.35 % ID/g
Biodistribution: heart (21 H post-injection): 0.41 ± 0.09 % ID/g
Biodistribution: kidney (21 H post-injection): 3.13 ± 1.65 % ID/g
Biodistribution: liver (21 H post-injection): 1.86 ± 0.51 % ID/g
Biodistribution: lung (21 H post-injection): 0.87 ± 0.27 % ID/g
Biodistribution: muscle (21 H post-injection): 0.16 ± 0.04 % ID/g
Biodistribution: spleen (21 H post-injection): 0.29 ± 0.12 % ID/g
Biodistribution: stomach (21 H post-injection): 0.14 ± 0.04 % ID/g
Biodistribution: thyroid (21 H post-injection): 0.36 ± 0.05 % ID/g
tumor/kidney ratio (21 H post-injection): 7.2
Non-target organ uptake: spleen [1]: 0.3 % D/g
Non-target organ uptake: stomach [1]: 0.14 % D/g
Non-target organ uptake: thyroid [1]: 0.36 % D/g
Biodistribution: PC-3 PiP (1 H post-injection): 78.1 ± 19.1 % ID/g
Biodistribution: PC-3 PiP (2 H post-injection): 74.7 ± 13.1 % ID/g
Biodistribution: PC-3 PiP (21 H post-injection): 22.6 ± 22.1 % ID/g
Biodistribution: PC-3 flu (1 H post-injection): 2.21 ± 0.53 % ID/g
Biodistribution: PC-3 flu (2 H post-injection): 1.51 ± 0.30 % ID/g
Biodistribution: PC-3 flu (21 H post-injection): 0.44 ± 0.18 % ID/g
PSMA positive tumor uptake (in words) (biodistributions of Tables 2, 3, 9, 10): demonstrated PSMA positive tumor uptake
Clearance from the kidneys (in words) (compared with [^131I]YC-I-27 and [^211At]YC-I-27): clear from the kidneys giving higher tumor to kidney ratios
